Publication PMC5706040, “Reclamation of Marine Chitinous Materials for the Production of α-Glucosidase Inhibitors via Microbial Conversion” (Marine Drugs, 2017)

Legend:
Test in all cases: absorbance at […] nm, p-nitrophenol release
[1] = target: T1, Rice α-glucosidase; type: biochemical, Oryza sativa; conditions: pNPG substrate, 0.1 mol/L potassium phosphate pH 7, 37 °C, 20 min preincubation, enzyme 1.0 U/mL
T1 construct: gene Os06g0675700; commercial enzyme from rice, type 4 (Sigma Aldrich)

[2] = target: T2, B. stearothermophilus α-glucosidase; type: biochemical, Geobacillus stearothermophilus; conditions: pNPG substrate, 0.1 mol/L potassium phosphate pH 7, 37 °C, 20 min preincubation, enzyme 0.10 U/mL
T2 construct: gene exo-alpha-1; commercial enzyme (Sigma Aldrich, Singapore)

[3] = target: T3, S. cerevisiae α-glucosidase; type: biochemical, Saccharomyces cerevisiae; conditions: pNPG substrate, 0.1 mol/L potassium phosphate pH 7, 37 °C, 20 min preincubation, enzyme 0.25 U/mL
T3 construct: gene MAL12; commercial yeast enzyme (Sigma Aldrich, Singapore)

[4] = target: T4, Rat intestinal α-glucosidase; type: biochemical; conditions: pNPG substrate, 0.1 mol/L potassium phosphate pH 7, 37 °C, 20 min preincubation, intestinal acetone powder preparation
T4 construct: gene Si; preparation from rat intestinal acetone powder (Sigma Aldrich)

Inhibition by Acarbose / IC50 [1]: 3.04 ± 0.82 µg/mL | Inhibition by Acarbose / IC50 [2]: 0.042 ± 0.003 µg/mL | α-Glucosidase Inhibition / IC50 [3]: 1095 ± 93 µg/mL | Inhibition by Acarbose / IC50 [4]: 78 ± 3.2 µg/mL
Compound: C[C@H]1O[C@H](O[C@H]2[C@H](O)[C@@H](O)[C@@H](O[C@H]3[C@H](O)[C@@H](O)C(O)O[C@@H]3CO)O[C@@H]2CO)[C@H](O)[C@@H](O)[C@@H]1N[C@H]1C=C(CO)[C@@H](O)[C@H](O)[C@H]1O (stereo partly shown) [acarbose]
